How the values were obtained:
[1] = DRUGMATRIX: Phosphodiesterase PDE3 enzyme inhibition (substrate: [3H]cAMP + cAMP); format: tissue-based, Homo sapiens; settings: platelet, Not Active = under 50% inhibition at 10 µM
[2] = biological target: T1, C-C chemokine receptor type 4 (Homo sapiens, UniProt P51679); format: cell membranes, Membrane; settings: chem-1; also: in other assays of this panel Not Active means under 50% inhibition at 10 µM
T1 sequence (P51679 whole entry): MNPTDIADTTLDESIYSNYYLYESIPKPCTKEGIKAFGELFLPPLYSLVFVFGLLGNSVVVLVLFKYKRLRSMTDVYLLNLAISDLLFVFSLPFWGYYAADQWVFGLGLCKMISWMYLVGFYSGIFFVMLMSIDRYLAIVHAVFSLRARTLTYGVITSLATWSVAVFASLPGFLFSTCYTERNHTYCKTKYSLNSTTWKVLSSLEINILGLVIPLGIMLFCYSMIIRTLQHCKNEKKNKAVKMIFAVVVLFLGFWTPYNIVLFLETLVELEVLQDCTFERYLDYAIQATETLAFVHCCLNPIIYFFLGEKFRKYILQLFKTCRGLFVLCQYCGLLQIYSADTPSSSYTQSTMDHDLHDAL

[3] = DRUGMATRIX: Phorbol Ester radioligand binding (ligand: [3H] PDBu); format: cell membranes, Mus musculus, ICR, Brain, Membrane; settings: Not Active = under 50% inhibition at 10 µM
Leukotriene C4 synthase = biological target: T2, Leukotriene C4 synthase (Cavia porcellus, UniProt A6XA80); format: tissue-based, Lung;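 also: enzyme inhibition assay of leukotriene C4 synthase, using LTA4 as the substrate; in other assays of this panel Not Active means under 50% inhibition at 10 µM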
T2 sequence (A6XA80 whole entry): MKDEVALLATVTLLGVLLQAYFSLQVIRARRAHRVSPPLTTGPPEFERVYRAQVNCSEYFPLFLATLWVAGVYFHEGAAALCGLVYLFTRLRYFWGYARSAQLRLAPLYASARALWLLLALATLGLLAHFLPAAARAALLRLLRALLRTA

[4] = biological target: 5-hydroxytryptamine receptor 4 (Cavia porcellus, UniProt O70528); format: cell membranes, Dunkin-Hartley, Striatum, Membrane; also: in other assays of this panel Not Active means under 50% inhibition at 10 µM
Sequence of 5-hydroxytryptamine receptor 4 (O70528 whole entry): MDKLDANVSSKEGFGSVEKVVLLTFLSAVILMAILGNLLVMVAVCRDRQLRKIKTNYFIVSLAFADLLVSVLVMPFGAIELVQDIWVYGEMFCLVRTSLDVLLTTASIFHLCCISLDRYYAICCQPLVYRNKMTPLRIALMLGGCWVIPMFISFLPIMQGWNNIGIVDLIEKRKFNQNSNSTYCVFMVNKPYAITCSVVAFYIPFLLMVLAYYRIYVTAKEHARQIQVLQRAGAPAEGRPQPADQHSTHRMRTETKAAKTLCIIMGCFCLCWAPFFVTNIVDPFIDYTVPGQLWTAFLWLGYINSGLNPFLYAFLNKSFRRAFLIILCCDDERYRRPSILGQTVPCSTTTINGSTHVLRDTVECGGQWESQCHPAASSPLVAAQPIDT

[5] = biological target: Prostaglandin G/H synthase 1 (Homo sapiens, UniProt P23219); experiment: biochemical; format: tissue-based, Platelet; settings: platelet;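 also: inhibition of COX-1 enzyme activity, with arachidonic acid supplied as substrate; in other assays of this panel Not Active means under 50% inhibition at 10 µM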
Sequence of Prostaglandin G/H synthase 1 (P23219 whole entry): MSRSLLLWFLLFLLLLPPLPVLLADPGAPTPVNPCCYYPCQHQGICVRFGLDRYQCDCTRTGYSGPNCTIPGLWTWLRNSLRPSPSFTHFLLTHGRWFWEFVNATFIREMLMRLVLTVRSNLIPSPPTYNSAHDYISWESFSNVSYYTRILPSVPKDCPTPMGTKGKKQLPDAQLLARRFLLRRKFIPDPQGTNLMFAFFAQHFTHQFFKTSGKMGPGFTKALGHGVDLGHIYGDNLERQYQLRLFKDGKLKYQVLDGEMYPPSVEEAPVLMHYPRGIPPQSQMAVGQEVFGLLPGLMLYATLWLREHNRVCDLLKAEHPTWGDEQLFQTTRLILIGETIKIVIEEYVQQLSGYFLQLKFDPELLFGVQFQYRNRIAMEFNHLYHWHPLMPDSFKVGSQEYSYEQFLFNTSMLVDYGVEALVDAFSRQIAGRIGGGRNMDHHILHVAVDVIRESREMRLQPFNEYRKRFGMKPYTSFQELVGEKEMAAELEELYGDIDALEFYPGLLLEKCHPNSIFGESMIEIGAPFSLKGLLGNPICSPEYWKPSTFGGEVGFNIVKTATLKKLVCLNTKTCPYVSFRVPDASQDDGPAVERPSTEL

Adenosine receptor A1 = biological target: T3, Adenosine receptor A1 (Homo sapiens, UniProt P30542); format: cell membranes, Membrane; settings: cho
T3 sequence (P30542 whole entry): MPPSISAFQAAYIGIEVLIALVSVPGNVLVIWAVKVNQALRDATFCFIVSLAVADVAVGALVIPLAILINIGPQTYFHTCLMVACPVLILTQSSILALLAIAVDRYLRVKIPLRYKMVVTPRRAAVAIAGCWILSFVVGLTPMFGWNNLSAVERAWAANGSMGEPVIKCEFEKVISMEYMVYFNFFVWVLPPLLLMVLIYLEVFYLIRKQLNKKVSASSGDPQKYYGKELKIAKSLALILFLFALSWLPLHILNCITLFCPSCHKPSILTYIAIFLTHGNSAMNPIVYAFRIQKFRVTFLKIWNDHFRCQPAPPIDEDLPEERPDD

[6] = biological target: C-C chemokine receptor type 5 (Homo sapiens, UniProt P51681); format: cell membranes, HEK293, Membrane; settings: hek293; also: in other assays of this panel Not Active means under 50% inhibition at 10 µM
Sequence of C-C chemokine receptor type 5 (P51681 whole entry): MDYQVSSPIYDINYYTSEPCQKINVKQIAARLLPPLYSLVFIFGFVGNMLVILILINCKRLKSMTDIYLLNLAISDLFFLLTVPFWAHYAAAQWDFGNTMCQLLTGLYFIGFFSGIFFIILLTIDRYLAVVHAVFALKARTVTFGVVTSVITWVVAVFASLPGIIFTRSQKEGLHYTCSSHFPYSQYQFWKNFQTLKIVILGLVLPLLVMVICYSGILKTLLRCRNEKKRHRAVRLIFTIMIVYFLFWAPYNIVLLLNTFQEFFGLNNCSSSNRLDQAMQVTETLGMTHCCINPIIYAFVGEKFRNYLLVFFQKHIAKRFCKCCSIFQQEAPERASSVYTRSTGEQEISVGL

Neutrophil elastase = biological target: T4, Neutrophil elastase (Homo sapiens, UniProt P08246); format: tissue-based
T4 sequence (P08246 whole entry): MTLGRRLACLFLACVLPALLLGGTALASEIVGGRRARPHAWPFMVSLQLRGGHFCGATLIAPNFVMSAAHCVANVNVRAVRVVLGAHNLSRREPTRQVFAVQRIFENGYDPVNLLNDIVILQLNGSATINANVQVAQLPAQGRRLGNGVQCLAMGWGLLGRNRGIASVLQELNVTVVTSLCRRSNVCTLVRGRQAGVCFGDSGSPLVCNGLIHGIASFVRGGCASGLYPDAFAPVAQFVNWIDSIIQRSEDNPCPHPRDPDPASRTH

[7] = DRUGMATRIX: Glutamate, NMDA, Phencyclidine radioligand binding (ligand: [3H] TCP); format: cell membranes, Rattus norvegicus, Wistar, Cerebral cortex, Membrane; settings: Not Active = under 50% inhibition at 10 µM
Cytochrome P450 2C19 = Cytochrome P450 2C19 (Homo sapiens, UniProt P33261); settings: bti-tn-5b1-4; also: in other assays of this panel Not Active means under 50% inhibition at 10 µM
Sequence of Cytochrome P450 2C19 (P33261 whole entry): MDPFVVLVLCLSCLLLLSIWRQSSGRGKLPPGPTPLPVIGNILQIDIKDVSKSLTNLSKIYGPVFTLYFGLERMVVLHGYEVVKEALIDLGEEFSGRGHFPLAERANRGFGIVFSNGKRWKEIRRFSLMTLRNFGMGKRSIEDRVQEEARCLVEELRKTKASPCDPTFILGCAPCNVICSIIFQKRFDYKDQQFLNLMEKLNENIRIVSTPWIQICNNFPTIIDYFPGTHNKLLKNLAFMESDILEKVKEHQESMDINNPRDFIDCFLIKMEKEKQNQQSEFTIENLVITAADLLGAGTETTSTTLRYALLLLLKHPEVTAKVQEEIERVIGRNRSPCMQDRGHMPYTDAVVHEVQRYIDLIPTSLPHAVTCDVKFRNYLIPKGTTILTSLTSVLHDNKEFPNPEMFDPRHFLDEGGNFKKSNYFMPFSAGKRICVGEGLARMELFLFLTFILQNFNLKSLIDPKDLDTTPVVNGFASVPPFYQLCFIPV

Glucocorticoid receptor = biological target: T5, Glucocorticoid receptor (Homo sapiens, UniProt P04150); settings: hela s3; also: in other assays of this panel Not Active means under 50% inhibition at 10 µM
T5 sequence (P04150 whole entry): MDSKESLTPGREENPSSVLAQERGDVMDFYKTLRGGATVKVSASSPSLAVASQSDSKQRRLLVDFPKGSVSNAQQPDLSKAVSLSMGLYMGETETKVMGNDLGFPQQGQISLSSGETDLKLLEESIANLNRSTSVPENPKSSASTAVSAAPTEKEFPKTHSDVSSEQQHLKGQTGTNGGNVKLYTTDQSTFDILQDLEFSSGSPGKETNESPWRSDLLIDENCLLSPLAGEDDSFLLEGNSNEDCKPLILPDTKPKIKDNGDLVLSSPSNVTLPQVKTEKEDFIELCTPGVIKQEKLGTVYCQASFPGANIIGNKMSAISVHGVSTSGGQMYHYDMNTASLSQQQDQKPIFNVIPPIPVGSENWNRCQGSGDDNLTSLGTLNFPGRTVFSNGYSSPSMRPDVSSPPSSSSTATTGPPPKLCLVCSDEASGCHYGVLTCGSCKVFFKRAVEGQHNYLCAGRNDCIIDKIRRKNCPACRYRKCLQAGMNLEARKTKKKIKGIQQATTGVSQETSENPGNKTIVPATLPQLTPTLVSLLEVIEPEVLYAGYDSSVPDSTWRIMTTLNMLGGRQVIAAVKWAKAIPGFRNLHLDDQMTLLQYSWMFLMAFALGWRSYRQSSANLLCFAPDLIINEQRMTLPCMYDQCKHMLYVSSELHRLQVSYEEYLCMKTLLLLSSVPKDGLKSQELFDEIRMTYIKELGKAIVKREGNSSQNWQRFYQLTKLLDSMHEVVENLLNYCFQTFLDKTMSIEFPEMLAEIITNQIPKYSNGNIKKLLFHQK

SMILES	IC50 [1]	Ki [1]	IC50 [2]	IC50 [3]	Ki [3]	IC50 (Leukotriene C4 synthase)	IC50 [4]	IC50 [5]	IC50 (Adenosine receptor A1)	IC50 [6]	IC50 (Neutrophil elastase)	IC50 [7]	Ki [7]	IC50 (Cytochrome P450 2C19)	Ki (Cytochrome P450 2C19)	IC50 (Glucocorticoid receptor)	IC50 ([1]; read-out: IC50) [nM]
CC(=O)N[C@@H]1[C@H](Oc2c3cc4cc2Oc2ccc(cc2Cl)[C@@H](O[C@@H]2O[C@@H](CO)[C@@H](O)[C@H](O)[C@@H]2NC(C)=O)[C@@H]2NC(=O)[C@H](NC(=O)[C@@H]4NC(=O)[C@H]4NC(=O)[C@@H](Cc5ccc(c(Cl)c5)O3)NC(=O)[C@H](N)c3ccc(O)c(c3)Oc3cc(O)cc4c3)c3ccc(O)c(c3)-c3c(O[C@H]4O[C@H](CO)[C@@H](O)[C@@H](O)[C@@H]4O)cc(O)cc3[C@@H](C(=O)O)NC2=O)O[C@@H](CO)[C@@H](O)[C@@H]1O	Not Active	Not Active	Not Active	Not Active	Not Active	Not Active	Not Active	Not Active	Not Active	Not Active	Not Active	Not Active	Not Active	Not Active	Not Active	Not Active	
CC(=O)N1CCN(c2ccc(OCC3COC(Cn4ccnc4)(c4ccc(Cl)cc4Cl)O3)cc2)CC1 (stereo not given) [KETOCONAZOLE]	Not Active	Not Active	Not Active	Not Active	Not Active	Not Active	Not Active	Not Active	Not Active	Not Active	Not Active	Not Active	Not Active	Not Active	Not Active	Not Active	
COCCCOc1ccnc(C[S+]([O-])c2nc3ccccc3[nH]2)c1C (stereo not given) [RABEPRAZOLE]			Not Active	Not Active	Not Active	Not Active	Not Active	Not Active	Not Active	Not Active	Not Active	Not Active	Not Active	Not Active	Not Active	Not Active	2280
CNC(=C[N+](=O)[O-])NCCSCc1ccc(CN(C)C)o1 [RANITIDINE]	Not Active	Not Active	Not Active	Not Active	Not Active	Not Active	Not Active	Not Active	Not Active	Not Active	Not Active	Not Active	Not Active	Not Active	Not Active	Not Active	
CO[C@H]1/C=C/O[C@@]2(C)Oc3c(C)c(O)c4c(c3C2=O)C2=NC3(CCN(CC(C)C)CC3)NC2=C(NC(=O)/C(C)=C\C=C\[C@H](C)[C@H](O)[C@@H](C)[C@@H](O)[C@@H](C)[C@H](OC(C)=O)[C@@H]1C)C4=O [RIFABUTIN]	Not Active	Not Active	Not Active	Not Active	Not Active	Not Active	Not Active	Not Active	Not Active	Not Active	Not Active	Not Active	Not Active	Not Active	Not Active	Not Active	
CC(C)CC(N(C)C)C1(c2ccc(Cl)cc2)CCC1 (stereo not given) [SIBUTRAMINE]	Not Active	Not Active	Not Active	Not Active	Not Active	Not Active	Not Active	Not Active	Not Active	Not Active	Not Active	Not Active	Not Active	Not Active	Not Active	Not Active	

— ChEMBL document CHEMBL1909046, “DrugMatrix in vitro pharmacology data”
